Experimental data published in US12419888B2, “Methods of treating elevated plasma cholesterol” (INSTITUT DE CARDIOLOGIE DE MONTREAL, priority 2020, dated 2025).

The compounds below were run on LDLR protein levels in HepG2 cells (assay: Western blot analysis of relative LDLR protein levels in HepG2 cells after treatment). Conditions: HepG2 cells incubated overnight with compound, 0.2 μM to 20 μM.
Format: cell-based, human
Procedure: Cell culture, treatments and cell viability assay. For phenotypic screening of PCSK9 modulators and/or LDLR small molecule inducers, human HepG2 cells were incubated overnight in conditioned media containing chemical compounds resuspended in DMSO at concentration ranging from 0.2 μM to 20 μM. […] Following incubation, media have been replaced and cells incubated for 4 h with 100 μL of phenol red-free DMEM containing 0.5 mg/mL of MTT (3-[4,5-dimethylthiazol-2-yl]-2,5-diphenyltetrazolium bromide; thiazolyl blue; catalog no. M5655, Sigma-Aldrich), following manufacturer's instructions.
Western Blot Analysis, Immunocytochemistry and LDLR Activity Assay. Following incubation, cells were washed three times in phosphate-buffered saline (PBS) and lysed in radioimmune precipitation assay buffer (50 mM Tris/HCl, pH 8.0, 1% (v/v) Nonidet P-40, 0.5% sodium deoxycholate, 150 mM NaCl, and 0.1% (v/v) SDS) supplemented with a complete protease inhibitor mixture (catalog no. 11 697 498 001, Roche Applied Science). Proteins were separated by SDS polyacrylamide gel electrophoresis, blotted on nitrocellulose membranes (Bio-Rad), blocked incubated with indicated antibodies as described (Poirier S, et al., Cell Rep, 2015). For immunocytochemistry analysis, cells were permeabilized or not with 0.1% Triton X-100/PBS for 10 min, and incubated with 150 mM glycine, blocked and incubated with indicated primary and secondary antibodies. Immunofluorescence analyses were performed with an Olympus FluoView FV10i confocal microscope (Poirier et al., Cell Rep. 2015; 13(10):2064-2071). For LDLR activity assay, HepG2 cells were incubated overnight without or with a given compound in the presence of 5 μg/ml fluorescent labelled DiI-LDL (Alfa Aesar, Cat. #J65330) and co-stained for LDLR if applicable, as described (Poirier et al., J Biol Chem. 2009; 284(42):28856-28864). Immunofluorescence analyses were performed with an Olympus FluoView FV10i confocal microscope.

| Compound | LDLR Fold (relative LDLR protein levels) [Fold] |
| --- | --- |
| 3-(1,3-benzodioxol-5-yl)-1-[(1S)-1-(6-methylpyridin-2-yl)-1,3,4,9-tetrahydropyrido[3,4-b]indol-2-yl]propan-1-one [Compound 23] | 1.2 |
| CCOc1cccc([C@@H]2CC(c3ccc(C)cc3)=NC3(CCN(C(C)=O)CC3)N2)c1O (stereo in doubt) [Compound 3, 1-[4-(3-ethoxy-2-hydroxyphenyl)-2-(4-methylphenyl)-1,5,9-triazaspiro[5.5]undec-1-en-9-yl]ethan-1-one] | 1.8 ± 0.6 |
| CN1C(=O)c2cc(C(=O)N3CCN(c4ccccc4)CC3)nn2C[C@]1(C)C(=O)NC1CCCCCC1 (stereo in doubt) [Compound 5, N-cycloheptyl-5,6-dimethyl-4-oxo-2-(4-phenylpiperazine-1-carbonyl)-4H,5H,6H,7H-pyrazolo[1,5-a]pyrazine-6-carboxamide] | 0.8 ± 0.0 |
| O=C(NCCc1c[nH]c2ccccc12)c1ccc2c(c1)NC(=O)[C@H]1CCCCN21 (stereo in doubt) [Compound 8, N-[2-(1H-indol-3-yl)ethyl]-6-oxo-5,6a,7,8,9,10-hexahydropyrido[1,2-a]quinoxaline-3-carboxamide] | 1.0 ± 0.2 |
| COc1ccc2cc([C@]3(C)NC(=O)N(CC(=O)N4CCC[C@@H]5CCCC[C@@H]54)C3=O)ccc2c1 (stereo in doubt) [Compound 15, 3-[2-(decahydroquinolin-1-yl)-2-oxoethyl]-5-(6-methoxynaphthalen-2-yl)-5-methylimidazolidine-2,4-dione] | 1.1 ± 0.6 |
| C[C@@]1(c2ccc3ccccc3c2)NC(=O)N(CC(=O)N2CCC[C@@H]3CCCC[C@@H]32)C1=O (stereo in doubt) [Compound 17, 3-[2-(decahydroquinolin-1-yl)-2-oxoethyl]-5-methyl-5-(naphthalen-2-yl)imidazolidine-2,4-dione] | 1.2 ± 0.6 |
| CC[C@@H]1CCCCN1C(=O)CN1C(=O)N[C@@](C)(c2ccc3ccccc3c2)C1=O (stereo in doubt) [Compound 18, 3-[2-(2-ethylpiperidin-1-yl)-2-oxoethyl]-5-methyl-5-(naphthalen-2-yl)imidazolidine-2,4-dione] | 1.4 ± 0.7 |
| C[C@@]1(c2ccc3ccccc3c2)NC(=O)N(CC(=O)N2CCC(Cc3ccccc3)CC2)C1=O (stereo in doubt) [Compound 19, 3-[2-(4-benzylpiperidin-1-yl)-2-oxoethyl]-5-methyl-5-(naphthalen-2-yl)imidazolidine-2,4-dione] | 1.0 ± 0.5 |
| Cc1cccc([C@@H]2c3[nH]c4ccccc4c3CCN2C(=O)CCN2CCCCC2=O)n1 (stereo in doubt) [Compound 20, 1-{3-[1-(6-methylpyridin-2-yl)-1H,2H,3H,4H,9H-pyrido[3,4-b]indol-2-yl]-3-oxopropyl}piperidin-2-one] | 1.4 |
| CC(C)(O)C#Cc1cccc(C(=O)N2CCc3c([nH]c4ccccc34)[C@H]2c2ccccn2)c1 (stereo in doubt) [Compound 21, 2-methyl-4-{3-[1-(pyridin-2-yl)-1H,2H,3H,4H,9H-pyrido[3,4-b]indole-2-carbonyl]phenyl}but-3-yn-2-ol] | 1.0 |
| Cc1ccc2c(CC(=O)N3CCc4c([nH]c5ccccc45)[C@H]3c3ccccn3)cc(=O)oc2c1 (stereo in doubt) [Compound 22, 7-methyl-4-{2-oxo-2-[1-(pyridin-2-yl)-1H,2H,3H,4H,9H-pyrido[3,4-b]indol-2-yl]ethyl}-2H-chromen-2-one] | 1.4 |
| Cc1cccc([C@H]2c3[nH]c4ccccc4c3CCN2C(=O)C(=O)CCc2ccccc2)n1 (stereo in doubt) [Compound 24, 1-[1-(6-methylpyridin-2-yl)-1H,2H,3H,4H,9H-pyrido[3,4-b]indol-2-yl]-4-phenylbutane-1,2-dione] | 1.6 |
